In patent US20080089851A1, “Brown Algae Cell Lyophilisate, Method For The Obtention Thereof” (BIOTECHMARINE, priority 2005, published 2008):
Values joined by “and” are separate entries in the source; they are usually repeats but may differ in a detail not shown here. Identical values can stand only once.

Columns and labels:
[1] = system: reconstructed melanized human epidermis; test: Pigmentation test: biochemical quantification of the melanic content; assay type: cell-based; conditions: α-MSH 100 nM
Protocol: 1. —Materials and Methods
The BB product is diluted in ethanol then incorporated into a cosmetic formulation.
a—BB product incorporated in formulation at 0.05%
b—BB product incorporated in formulation at 0.15%
c—BB product incorporated in formulation at 0.30%
They are conserved at 4° C. until use thereof.
2. —Biochemical Assessment
At the end of the incubation, the melanin contained in cell lysates was quantified by a spectrophotometrical method. A range of melanin was carried out in parallel with the assay.
The results are expressed in […] of melanin per ml of lysate of the cell carpets (average +/−standard deviation SD).
The statistical significance of the observed differences between the conditions <<treated >> and <<controls >> was assessed by variance analysis to a factor (One Way ANOVA) followed by a test of Bonferroni t-test (*:p<0.05;**:p<0.01).

[2] = system: reconstructed melanized human epidermal skins; test: Pigmentation test: melanic content by image analysis (Fontana Masson); assay type: cell-based; conditions: WITHOUT UV; α-MSH 100 nM
Protocol: 3. —Histological Assessment
The epidermis skins ware fixed in formaldehyde from the end of incubation, then embedded in paraffin blocs. Subsequently sections of 4 μm thickness were cut.
Said slides by condition were carried out with a magnification ×400. The visualisable melanin on these slides was quantified by image analysis using the Image J program.
The results are expressed in form of the surface occupied by the melanin (number of pixels the grey scale of which is between 0 and 100; 0=black/255=white) in each slide (average +/−standard deviation, SD).
The statistical significance of the noted differences between the treated conditions and controls was assessed by a Student's test (*: p<0.05, **: p<0.01; ***: p<0.001).

[3] = system: human keratinocytes in senescence; test: Transport of lipids (choline), human keratinocytes in senescence; assay type: cell-based; conditions: for Capture of [^3H]choline: DPA 1 mM
Protocol: (§1) The obtained microsomes from human keratinocytes in culture were rinsed 3 times with 25 mM Tris buffer, then preincubated in 1 ml of the same buffer for 30 minutes at 37° C. This solution was then discarded and the microsomes were placed into the 25 mM Tris buffer containing [^3H] Choline with stirring in a water bath at 37° C. The capture of choline was stopped by addition of a lysis buffer containing (50 mM de Tris, 140 mM NaCl, 1.5 mM MgSO4, 0.5% Igepal-Ca-630, 0.2% SDS). The kinetics of incubation was performed between 30 and 120 seconds. Subsequently, the microsomes were rinsed 2 times with PBS then dissolved in NaOH (1M) at 4° C. over night. The radioactivity was determined with a scintillation counter.
(§2) 7.3—Assessment of the Rate of Transport of Macromolecules at the Level of Human Keratinocytes in Senescence
(§3) The senescence is a phenomenon of cellular aging, where the cells are arrested in the phase G1 of the cell cycle and never enter the synthesis phase leading to the cell division. Senescent cells are characterized by their slow metabolism at synthesis and transport of macromolecules levels.
(§4) The cells in culture deprived of serum stop their growth, but continue to progress through the cell cycle until they reach the phase G1.
The assays were performed on keratinocytes, between the 8th and the 10th passage, in order to ensure the presence of senescent cells at control cells level.
(§5) The keratinocytes were seeded in multiwell plates (6 wells) at a rate of 10^5 cells per well in 3 ml of culture medium […] supplemented with EGF, hydrocortisone, insulin and gentamicyn. Afterwards they are maintained for 5 days in incubator under CO2.
7.3.2—Transport of Lipids
(§6) The membrane microsomes were separated by differential centrifugation.
The same protocol of capture of [3H] Choline was applied to the determination of the rate of transport of choline (cf. 6.1.2)

[4] = system: microsomes of human keratinocytes; test: Transport of lipids (choline), direct treatment of isolated microsomes; assay type: biochemical; conditions: for Capture of [^3H]choline: DPA 1 mM
Source text: 7.1—Assessment of the Rate of Transport of Macromolecules (Glucids, Lipids and Proteins) in a System of Isolated Microsomes. Direct Effect of the BB Product on Isolated Microsomes:
The microsomes of human keratinocytes form a membrane fraction obtained by high-speed differential centrifugation of a cell homogenate. This preparation of microsomes requires the addition of exogenous cofactors such as NADPH.
7.1.2—Transport of Lipids
as §1
The protein assay was carried out following the BRADFORD method. The increase in absorbance at 595 nm, determined with a spectrophotometer, is proportional to the protein concentration.

[5] = system: normal human keratinocytes; test: Transport of lipids (choline), normal human keratinocytes; assay type: cell-based; conditions: for Capture of [^3H]choline: DPA 1 mM
Protocol: as §1
7.2—Assessment of the Rate of Transport of Macromolecules at the Level of Normal Human Keratinocytes
The applied method was that of explants allowing to obtain, from a biopsy of human skin, keratinocytes in primary cultures. The assays were carried out on keratinocytes between the 2nd and the 4th passage in order to ensure a reproductibility between the different experiences.
The keratinocytes were divided into multiwell plates (6 wells) at a rate of 10^5 cells per well in 1 ml of culture medium […] supplemented with insulin and hydrocortisone. The cells were incubated in the presence and absence of the investigated product.
7.2.2—Transport of Lipids
as §6
The same protocol of capture of [3H] choline was used for the determination of the speed of transport of choline (cf. 6.1.2)

[6] = system: human keratinocytes in senescence; test: Transport of proteins (albumin), human keratinocytes in senescence; assay type: cell-based; conditions: for Capture of albumin-FITC: ND 6 mg/ml
Protocol: The obtained microsomes from human keratinocytes in culture were rinsed 3 times with a buffer, afterwards pre-incubated in 1 ml of the same buffer for 30 minutes at 3° C. This solution was subsequently discarded and the microsomes were placed into the HBSS buffer containing albumin-FITC with stirring in a water bath at 37° C. The capture of albumin is stopped by addition of a Ringer's solution containing 122.5 mM NaCl; 5.4 mM KCl; 1.2 mM CaCl2; 0.8 mM MgCl2; 0.8 Na2HPO4; 0.2 NaHPO4; 5.5 mM glucose; 10 mM HEPES, pH 7,4. Afterwards, the microsomes were treated with Triton X-100 at (0.1% v/v in 3-(N-morpholino) propanesulfonic acid 20 mM, pH 7.4). The fluorescence was quantified with a spectrophotometer (excitation 480 nm: emission 520 nm). The kinetics of incubation was performed between 30 and 120 seconds.
as §2, §3, §4
The applied method allowed to obtain, from a human skin biopsy, primary cultures of keratinocytes. The assays were performed on keratinocytes, between the 8th and the 10th passage, in order to ensure the presence of senescent cells at control cells level.
as §5
7.3.3—Transport of Proteins (Albumin)
The assay was carried out in triplicate on human keratinocytes in senescence. • Charge 1: negative control not receiving any product. • Charge 2: positive control (Nocodazole, 6 mg/ml) • Charge 3-5: treated receiving the investigated product (3 concentrations) • Charge 6-8: treated with Nocodazole, 6 mg/ml, and the investigated product (3 concentrations)
The treatment of keratinocytes with the BB product in the presence and absence of Nocodazole, 6 mg/ml, was carried out for 120 minutes at 37° C. The membrane microsomes were separated by differential centrifugation.
The same protocol of capture of albumin-FITC was applied to determine the rate of transport of albumin (cf. 6.1.3)

[7] = system: microsomes of human keratinocytes; test: Transport of proteins (albumin), direct treatment of isolated microsomes; assay type: biochemical; conditions: for Capture of albumin-FITC: ND 6 mg/ml
Protocol: 7.1—Assessment of the Rate of Transport of Macromolecules (Glucids, Lipids and Proteins) in a System of Isolated Microsomes. Direct Effect of the BB Product on Isolated Microsomes: The microsomes of human keratinocytes form a membrane fraction obtained by high-speed differential centrifugation of a cell homogenate. This preparation of microsomes requires the addition of exogenous cofactors such as NADPH. 7.1.3—Transport of Proteins (Albumin) The assay was performed in triplicate after the direct treatment of microsomes. • Charge 1: negative control not receiving any product • Charge 2: positive control (Nocodazole, 6 mg/ml) • Charge 3-5: treated receiving the investigated product (3 concentrations) • Charge 6-8: treated with Nocodazole 6 mg/ml, and with the investigated product (3 concentrations) The obtained microsomes from human keratinocytes in culture were rinsed 3 times with a buffer, afterwards pre-incubated in 1 ml of the same buffer for 30 minutes at 3° C. This solution was subsequently discarded and the microsomes were placed into the HBSS buffer containing albumin-FITC with stirring in a water bath at 37° C. The capture of albumin is stopped by addition of a Ringer's solution containing 122.5 mM NaCl; 5.4 mM KCl; 1.2 mM CaCl2; 0.8 mM MgCl2; 0.8 Na2HPO4; 0.2 NaHPO4; 5.5 mM glucose; 10 mM HEPES, pH 7,4. Afterwards, the microsomes were treated with Triton X-100 at (0.1% v/v in 3-(N-morpholino) propanesulfonic acid 20 mM, pH 7.4). The fluorescence was quantified with a spectrophotometer (excitation 480 nm: emission 520 nm). The kinetics of incubation was performed between 30 and 120 seconds. The treatment of microsomes with the BB product alone or in the presence of Nocodazole (ND) were carried out at the same time as the introduction of albumin-FITC into the incubation medium. The assay of proteins was performed following the BRADFORD method. The increase in absorbance at 595 nm is proportional to the concentration of proteins measured with a spectrophotometer.

[8] = system: normal human keratinocytes; test: Transport of proteins (albumin), normal human keratinocytes; assay type: cell-based; conditions: for Capture of albumin-FITC: S.D. 6 mg/ml
Protocol: The obtained microsomes from human keratinocytes in culture were rinsed 3 times with a buffer, afterwards pre-incubated in 1 ml of the same buffer for 30 minutes at 3° C. This solution was subsequently discarded and the microsomes were placed into the HBSS buffer containing albumin-FITC with stirring in a water bath at 37° C. The capture of albumin is stopped by addition of a Ringer's solution containing 122.5 mM NaCl; 5.4 mM KCl; 1.2 mM CaCl2; 0.8 mM MgCl2; 0.8 Na2HPO4; 0.2 NaHPO4; 5.5 mM glucose; 10 mM HEPES, pH 7,4. Afterwards, the microsomes were treated with Triton X-100 at (0.1% v/v in 3-(N-morpholino) propanesulfonic acid 20 mM, pH 7.4). The fluorescence was quantified with a spectrophotometer (excitation 480 nm: emission 520 nm). The kinetics of incubation was performed between 30 and 120 seconds. 7.2—Assessment of the Rate of Transport of Macromolecules at the Level of Normal Human Keratinocytes The applied method was that of explants allowing to obtain, from a biopsy of human skin, keratinocytes in primary cultures. The assays were carried out on keratinocytes between the 2nd and the 4th passage in order to ensure a reproductibility between the different experiences. The keratinocytes were divided into multiwell plates (6 wells) at a rate of 10^5 cells per well in 1 ml of culture medium […] supplemented with insulin and hydrocortisone. The cells were incubated in the presence and absence of the investigated product. 7.2.3—Transport of Proteins (Albumin) The assay was carried out in triplicate on normal human keratinocytes in culture. • Charge 1: negative control not receiving any product. • Charge 2: positive control (Nocodazole, 6 mg/ml) • Charge 3-5: treated receiving the investigated product (3 concentrations) • Charge 6-8: treated with Nocodazole, 6 mg/ml, and with the investigated product (3 concentrations) The treatment of keratinocytes with the BB product in the presence and absence of Nocodazole, 6 mg/ml, was carried out for 120 minutes at 37° C. The membrane microsomes were separated by differential centrifugation. The same protocol of capture of albumin-FITC was used for the determination of the rate of transport of albumin (cf. 3.1.4.2)

## α-MSH
[1]; +UVA
  Melanin, % medium alone: 141%
  Melanin, Average: 96.1 µg/mL
  Melanin, single values: 95.6 µg/mL and 84.7 µg/mL and 107.9 µg/mL
[1]; +UVB
  Melanin, % medium alone: 128%
  Melanin, Average: 106.5 µg/mL
  Melanin, single values: 99.5 µg/mL and 115.5 µg/mL and 104.6 µg/mL
[1]; WITHOUT UV
  Melanin, % medium alone: 141%
  Melanin, Average: 80.7 µg/mL
  Melanin, single values: 70.3 µg/mL and 86.9 µg/mL and 85 µg/mL
[2]
  Surface occupied by the melanin, % medium alone: 208%
  Surface occupied by the melanin, Average: 40277.8 pixels

## CN(C)CCOC(c1ccccc1)c1ccccc1 [DPA, Diphenhydramin]
[3]; 30 s
  Capture of [^3H]choline: 55 pmol/mg of proteins
[3]; 60 s
  Capture of [^3H]choline: 79 pmol/mg of proteins
[3]; 120 s
  Capture of [^3H]choline: 119 pmol/mg of proteins
[3]; Diphenhydramin 1 mM alone
  rate of transport of lipids (in words): strongly inhibits
[4]; 30 s
  Capture of [^3H]choline: 74 pmol/mg proteins
[4]; 60 s
  Capture of [^3H]choline: 105 pmol/mg proteins
[4]; 90 s
  Capture of [^3H]choline: 132 pmol/mg proteins
[4]; 120 s
  Capture of [^3H]choline: 142 pmol/mg proteins
[4]; Diphenhydramin 1 mM alone
  rate of transport of lipids (in words): strongly inhibits
[5]; 30 s
  Capture of [^3H]choline: 92 pmol/mg proteins
[5]; 60 s
  Capture of [^3H]choline: 115 pmol/mg proteins
[5]; 90 s
  Capture of [^3H]choline: 143 pmol/mg proteins
[5]; 120 s
  Capture of [^3H]choline: 156 pmol/mg proteins
[5]; Diphenhydramin 1 mM alone
  rate of transport of lipids (in words): moderately inhibits

## COC(=O)Nc1nc2ccc(C(=O)c3cccs3)cc2[nH]1 [ND, Nocodazole]
[6]; 30 s
  Capture of albumin-FITC: 0.06 μg/mg of proteins
[6]; 60 s
  Capture of albumin-FITC: 0.11 μg/mg of proteins
[6]; 90 s
  Capture of albumin-FITC: 0.19 μg/mg of proteins
[6]; 120 s
  Capture of albumin-FITC: 0.3 μg/mg of proteins
[6]; Nocodazole 6 mg/ml alone
  rate of transport of proteins (in words): inhibits
[7]; 30 s
  Capture of albumin-FITC: 0.11 μg/mg proteins
[7]; 60 s
  Capture of albumin-FITC: 0.29 μg/mg proteins
[7]; 90 s
  Capture of albumin-FITC: 0.34 μg/mg proteins
[7]; 120 s
  Capture of albumin-FITC: 0.43 μg/mg proteins
[7]; Nocodazole 6 mg/ml alone
  rate of transport of proteins (in words): strongly inhibits
[8]; Nocodazole 6 mg/ml alone
  rate of transport of proteins (in words): inhibits
[8]; 30 s
  Capture of albumin-FITC: 0.09 μg/mg proteins
[8]; 60 s
  Capture of albumin-FITC: 0.22 μg/mg proteins
[8]; 90 s
  Capture of albumin-FITC: 0.26 μg/mg proteins
[8]; 120 s
  Capture of albumin-FITC: 0.37 μg/mg proteins
